Assay results reported in ChEMBL document CHEMBL1158316, “Modulation of lipoxygenase activity by bacterial hopanoids” (J Nat Prod, 1997).
Active and inactive are the calls of the source. The calls are words filed in the database; no cut-off is given here.

Tests used:
[1] = Inhibition of cyclooxygenase assessed as rate of disappearance of dissolved oxygen at 2.4 uM relative to control; parameters: scale not given: the % may be the effect or the level left
Glycine max [2] = assay: Inhibition of soybean 15-lipoxygenase assessed as rate of disappearance of dissolved oxygen at 6.75 uM relative to control; parameters: scale not given: the % may be the effect or the level left
Glycine max [3] = assay: Inhibition of soybean 15-lipoxygenase assessed as rate of disappearance of dissolved oxygen at 12.5 uM relative to control; parameters: scale not given: the % may be the effect or the level left
Glycine max [4] = assay: Inhibition of soybean 15-lipoxygenase assessed as rate of disappearance of dissolved oxygen at 25 uM relative to control; parameters: scale not given: the % may be the effect or the level left
Glycine max [5] = assay: Inhibition of soybean 15-lipoxygenase assessed as rate of disappearance of dissolved oxygen at 50 uM relative to control; parameters: scale not given: the % may be the effect or the level left
Glycine max [6] = assay: Inhibition of soybean 15-lipoxygenase assessed as rate of disappearance of dissolved oxygen at 100 uM relative to control; parameters: scale not given: the % may be the effect or the level left
[7] = target: T1, Polyunsaturated fatty acid 5-lipoxygenase (Homo sapiens) (UniProt P09917); assay: Inhibition of human recombinant 5-lipoxygenase assessed as rate of disappearance of dissolved oxygen at 25 uM relative to control; parameters: scale not given: the % may be the effect or the level left
T1 sequence (whole entry): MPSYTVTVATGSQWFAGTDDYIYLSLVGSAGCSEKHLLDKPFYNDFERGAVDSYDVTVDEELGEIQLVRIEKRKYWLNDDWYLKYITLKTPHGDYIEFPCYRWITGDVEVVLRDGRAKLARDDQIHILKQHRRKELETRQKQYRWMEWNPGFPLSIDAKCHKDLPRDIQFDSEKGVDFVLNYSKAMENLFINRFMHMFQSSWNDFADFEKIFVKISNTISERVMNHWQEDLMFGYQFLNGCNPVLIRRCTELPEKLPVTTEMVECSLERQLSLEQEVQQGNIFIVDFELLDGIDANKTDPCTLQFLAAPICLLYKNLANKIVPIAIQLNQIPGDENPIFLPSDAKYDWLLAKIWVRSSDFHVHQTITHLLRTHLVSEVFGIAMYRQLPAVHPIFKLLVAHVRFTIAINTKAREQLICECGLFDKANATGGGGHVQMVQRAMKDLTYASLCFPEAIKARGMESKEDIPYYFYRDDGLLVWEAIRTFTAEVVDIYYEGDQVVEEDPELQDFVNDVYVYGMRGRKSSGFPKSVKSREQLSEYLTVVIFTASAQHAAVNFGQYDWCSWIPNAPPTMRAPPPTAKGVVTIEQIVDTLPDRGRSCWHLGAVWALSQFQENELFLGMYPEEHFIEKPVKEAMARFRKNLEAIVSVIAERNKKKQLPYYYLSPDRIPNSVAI

[8] = target: T1, Polyunsaturated fatty acid 5-lipoxygenase (Homo sapiens); assay: Inhibition of human recombinant 5-lipoxygenase assessed as rate of disappearance of dissolved oxygen at 50 uM relative to control; parameters: scale not given: the % may be the effect or the level left
[9] = Inhibition of cyclooxygenase assessed as rate of disappearance of dissolved oxygen at 25 uM relative to control; parameters: scale not given: the % may be the effect or the level left
[10] = Inhibition of cyclooxygenase assessed as rate of disappearance of dissolved oxygen at 50 uM relative to control; parameters: scale not given: the % may be the effect or the level left
[11] = (§1) Inhibition of soybean 15-lipoxygenase; parameters: species or system Glycine max
Glycine max [12] = assay: as §1

| Activity (Glycine max [4]) [%] | SMILES | Activity (Glycine max [5]) [%] | Activity [7] [%] | other results |
| --- | --- | --- | --- | --- |
| – | COc1ccc2c(c1)c(CC(=O)O)c(C)n2C(=O)c1ccc(Cl)cc1 | – | – | Activity [1]: 7% |
| 172 | C[C@H](CC[C@@H](O)[C@@H](O)[C@@H](O)CO[C@@H]1O[C@H](CO)[C@@H](O)[C@H](O)[C@H]1N)[C@H]1CC[C@]2(C)[C@H]3CC[C@@H]4[C@@]5(C)CCCC(C)(C)[C@@H]5CC[C@@]4(C)[C@]3(C)CC[C@@H]12 | 188 | – | – |
| 151 | C[C@H](CC[C@@H](O)[C@@H](O)[C@@H](O)CO[C@H]1[C@H](N)[C@@H](O)[C@H](O)[C@@]1(O)CO)[C@H]1CC[C@]2(C)[C@H]3CC[C@@H]4[C@@]5(C)CCCC(C)(C)[C@@H]5CC[C@@]4(C)[C@]3(C)CC[C@@H]12 | 250 | – | – |
| 34 | O=C1CCN(c2ccccc2)N1 | – | 55 | – |

| SMILES | Activity (Glycine max [4]) [%] | Activity (Glycine max [5]) [%] | Activity [7] [%] | other results |
| --- | --- | --- | --- | --- |
| C[C@H](CC[C@@H](O)[C@@H](O)[C@@H](O)CO)[C@H]1CC[C@]2(C)[C@H]3CC[C@@H]4[C@@]5(C)CCCC(C)(C)[C@@H]5CC[C@@]4(C)[C@]3(C)CC[C@@H]12 [TETRAHYDROXYBACTERIOHOPANE] | 15 | 4 | 98 | Activity (Glycine max [2]): 68%; Activity (Glycine max [3]): 48%; Activity (Glycine max [6]): 11%; Activity [8]: 97%; Activity [9]: 102%; Activity [10]: 103%; IC50 [11]: 10 µM |
| CC(=O)OC[C@H](OC(C)=O)[C@H](OC(C)=O)[C@@H](CC[C@@H](C)[C@H]1CC[C@]2(C)[C@H]3CC[C@@H]4[C@@]5(C)CCCC(C)(C)[C@@H]5CC[C@@]4(C)[C@]3(C)CC[C@@H]12)OC(C)=O | 89 | 114 | – | Activity (Glycine max [12]): inactive |
